Key:
[1] = molecular target: T1, butyrylcholinesterase (BChE) (Equus caballus, UniProt P81908); assay: biochemical; design: species or system equine; conditions: for IC50: BChE IC50 (μM)
T1 construct: butyrylcholinesterase (BChE, E.C. from equine serum); purchased Sigma Aldrich (St. Louis, MO, USA); host or cells: equine serum

[2] = molecular target: T2, acetylcholinesterase (AChE) (Electrophorus electricus, UniProt O42275); assay: biochemical; design: species or system electric eel; conditions: read-out: AChE Inhibition (%)
T2 construct: purchased Sigma Aldrich (St. Louis, MO, USA)

[3] = Complex formation with Fe^3+, spectrophotometric titration; type: physicochemical; conditions: for Molar absorptivities at the longer-wavelength band maxima, ε: free ligand; for absorbance vs. ligand concentration plot: titration at constant Fe(III) content; for absorptivity of the complex higher than that of the ligand / molar absorptivity of the complex formed: complex with Fe^3+; for molar absorptivity of the complex formed: slope of absorbance vs. ligand concentration plot
Method: For this purpose, the following compounds were selected: 1, 3, 6 and 7. The Fe^3+ ions strongly hydrolyze, decreasing the pH of the aqueous system; thus, acidic solutions were used to study the possible complex formation via spectrophotometric titrations.
The absorption spectra used to determine the molar absorptivity and to evaluate the complex formation constant were recorded with a Specord S600 spectrophotometer (Analytic Jena GmbH, Jena, Germany) in the 190–900 nm wavelength range. During the titration, the ligand concentration was increased at a constant Fe(III) content.

BChE = conditions: selectivity BChE over AChE; cited from earlier work

T1 sequence (P81908 whole entry): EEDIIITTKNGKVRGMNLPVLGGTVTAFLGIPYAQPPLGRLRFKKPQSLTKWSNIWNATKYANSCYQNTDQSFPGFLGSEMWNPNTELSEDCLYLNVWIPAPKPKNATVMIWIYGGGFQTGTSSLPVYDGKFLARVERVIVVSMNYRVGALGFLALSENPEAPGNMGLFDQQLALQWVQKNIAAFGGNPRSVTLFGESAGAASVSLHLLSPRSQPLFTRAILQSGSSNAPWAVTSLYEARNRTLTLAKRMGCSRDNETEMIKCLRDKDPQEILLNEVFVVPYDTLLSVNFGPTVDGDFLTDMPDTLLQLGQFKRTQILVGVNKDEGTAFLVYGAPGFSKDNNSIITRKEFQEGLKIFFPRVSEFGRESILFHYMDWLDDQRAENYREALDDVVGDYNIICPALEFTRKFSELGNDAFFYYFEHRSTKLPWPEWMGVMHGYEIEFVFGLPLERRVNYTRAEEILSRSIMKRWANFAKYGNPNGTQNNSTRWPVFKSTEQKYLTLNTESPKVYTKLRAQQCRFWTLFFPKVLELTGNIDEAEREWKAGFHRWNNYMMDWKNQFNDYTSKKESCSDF
T2 sequence (O42275 24-633): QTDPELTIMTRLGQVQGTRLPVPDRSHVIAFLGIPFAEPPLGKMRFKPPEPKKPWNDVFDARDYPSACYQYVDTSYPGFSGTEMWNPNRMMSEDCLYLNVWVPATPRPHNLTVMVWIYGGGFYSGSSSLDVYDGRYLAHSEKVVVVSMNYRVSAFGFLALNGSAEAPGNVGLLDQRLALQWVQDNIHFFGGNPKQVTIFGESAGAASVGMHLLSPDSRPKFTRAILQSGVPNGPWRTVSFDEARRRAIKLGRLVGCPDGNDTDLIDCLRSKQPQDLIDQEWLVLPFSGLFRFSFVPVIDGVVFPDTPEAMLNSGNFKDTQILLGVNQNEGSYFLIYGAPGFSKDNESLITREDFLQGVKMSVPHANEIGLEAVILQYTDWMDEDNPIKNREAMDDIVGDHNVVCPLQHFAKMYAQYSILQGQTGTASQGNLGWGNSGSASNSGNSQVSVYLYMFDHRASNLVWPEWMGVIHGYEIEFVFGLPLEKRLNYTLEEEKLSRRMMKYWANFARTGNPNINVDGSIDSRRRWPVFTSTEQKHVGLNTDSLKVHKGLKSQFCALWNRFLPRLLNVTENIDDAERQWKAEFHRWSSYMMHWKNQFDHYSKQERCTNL

## Cc1ccc(OC(=O)N(C)C)c(/C=C/c2cccs2)c1 [Compound 2, (E)-4-methyl-2-(2-(thiophen-2-yl)vinyl)phenyl dimethylcarbamate]
[1]
  IC50: 1.05 ± 0.09 µM
[1]; read-out: BChE Inhibition (%)
  inhibition at 10 µM: 85%
[2]
  inhibition at 100 µM: 16.7%

## Cc1ccc(/C=C/c2ccccc2OC(=O)N(C)C)s1 [Compound 7, (E)-2-(2-(5-methylthiophen-2-yl)vinyl)phenyl dimethylcarbamate]
[1]
  IC50: 0.38 ± 0.01 µM
[1]; read-out: BChE Inhibition (%)
  inhibition at 25 µM: 86.3%
[2]
  inhibition at 100 µM: 17.7%
[3]
  Molar absorptivities at the longer-wavelength band maxima, ε: 19,410 M^–1cm^–1
  absorbance vs. ligand concentration plot: no deviation from the straight line

## CN(C)C(=O)Oc1cccc(/C=C/c2cccs2)c1 [Compound 11, (E)-3-(2-(thiophen-2-yl)vinyl)phenyl dimethylcarbamate]
[1]
  IC50: 11.4 ± 2.48 µM
[1]; read-out: BChE Inhibition (%)
  inhibition at 100 µM: 83.4%
[2]
  inhibition at 100 µM: 19%

## cymserine
BChE
  more effective as a BChE inhibitor compared to AChE: 15 times

## Cc1cnc(/C=C/c2cc(Cl)ccc2OC(=O)N(C)C)s1 [Compound 13, (E)-4-chloro-2-(2-(5-methylthiazol-2-yl)vinyl)phenyl dimethylcarbamate]
[1]
  IC50: 3.77 ± 0.13 µM
[1]; read-out: BChE Inhibition (%)
  inhibition at 50 µM: 84.1%
[2]
  inhibition at 100 µM: 37.5%

## COc1ccc(OC(=O)N(C)C)c(/C=C/c2cccs2)c1 [Compound 5, (E)-4-methoxy-2-(2-(thiophen-2-yl)vinyl)phenyl dimethylcarbamate]
[1]
  IC50: 11.6 ± 0.18 µM
[1]; read-out: BChE Inhibition (%)
  inhibition at 100 µM: 84%
[2]
  inhibition at 100 µM: 11%

## Cc1cnc(/C=C/c2cc(F)ccc2OC(=O)N(C)C)s1 [Compound 12, (E)-4-fluoro-2-(2-(5-methylthiazol-2-yl)vinyl)phenyl dimethylcarbamate]
[1]
  IC50: 23.4 ± 2.43 µM
[1]; read-out: BChE Inhibition (%)
  inhibition at 100 µM: 81.4%
[2]
  inhibition at 100 µM: 23.9%

## CN(C)C(=O)Oc1ccccc1/C=C/c1cccs1 [Compound 1, (E)-2-(2-(thiophen-2-yl)vinyl)phenyl dimethylcarbamate]
[1]
  IC50: 0.12 ± 0.09 µM
[1]; read-out: BChE Inhibition (%)
  inhibition at 50 µM: 85%
[2]
  inhibition at 100 µM: 30%
[3]
  Molar absorptivities at the longer-wavelength band maxima, ε: 22,570 M^–1cm^–1
  absorbance vs. ligand concentration plot: no deviation from the straight line

## CN(C)C(=O)Oc1ccc(F)cc1/C=C/c1cccs1 [Compound 3, (E)-4-fluoro-2-(2-(thiophen-2-yl)vinyl)phenyl dimethylcarbamate]
[1]
  IC50: 1.48 ± 0.36 µM
[1]; read-out: BChE Inhibition (%)
  inhibition at 100 µM: 85%
[2]
  inhibition at 100 µM: 12.6%
[3]
  absorptivity of the complex higher than that of the ligand: about 26%
  molar absorptivity of the complex formed: 13,200 M^−1 cm^−1
  Molar absorptivities at the longer-wavelength band maxima, ε: 10,440 M^–1cm^–1

## Cc1ccc(/C=C/c2cc(Cl)ccc2OC(=O)N(C)C)s1 [Compound 10, (E)-4-chloro-2-(2-(5-methylthiophen-2-yl)vinyl)phenyl dimethylcarbamate]
[1]
  IC50: 23.2 ± 3.78 µM
[1]; read-out: BChE Inhibition (%)
  inhibition at 100 µM: 85.7%
[2]
  inhibition at 100 µM: 27%

## Cc1ccc(/C=C/c2cc(F)ccc2OC(=O)N(C)C)s1 [Compound 9, (E)-4-fluoro-2-(2-(5-methylthiophen-2-yl)vinyl)phenyl dimethylcarbamate]
[1]
  IC50: 15 ± 2.32 µM
[1]; read-out: BChE Inhibition (%)
  inhibition at 100 µM: 85.2%
[2]
  inhibition at 100 µM: 23.6%

## CN(C)C(=O)Oc1ccc(Cl)cc1/C=C/c1cccs1 [Compound 4, (E)-4-chloro-2-(2-(thiophen-2-yl)vinyl)phenyl dimethylcarbamate]
[1]
  IC50: 2.83 ± 0.03 µM
[1]; read-out: BChE Inhibition (%)
  inhibition at 25 µM: 85.3%
[2]
  inhibition at 100 µM: 35%

## Cc1ccc(OC(=O)N(C)C)c(/C=C/c2ccc(C)s2)c1 [Compound 8, (E)-4-methyl-2-(2-(5-methylthiophen-2-yl)vinyl)phenyl dimethylcarbamate]
[1]
  IC50: 25.5 ± 0.21 µM
[1]; read-out: BChE Inhibition (%)
  inhibition at 100 µM: 72.5%
[2]
  inhibition at 100 µM: 25.2%

## COc1ccc(/C=C/c2cccs2)c(OC(=O)N(C)C)c1 [Compound 6, (E)-5-methoxy-2-(2-(thiophen-2-yl)vinyl)phenyl dimethylcarbamate]
[1]
  IC50: 0.9 ± 0.14 µM
[1]; read-out: BChE Inhibition (%)
  inhibition at 25 µM: 84.4%
[2]
  inhibition at 100 µM: 1%
[3]
  absorptivity of the complex higher than that of the ligand: ca. 64%
  molar absorptivity of the complex formed: about 26,700 M^−1 cm^−1
  Molar absorptivities at the longer-wavelength band maxima, ε: 16,330 M^–1cm^–1
